Experimental data reported in the NIST ThermoML archive (doi:10.1016/j.jct.2015.09.022).

Experiment: xn = mol fraction of the nth substance listed
Settings: 100.7 kPa, Liquid; for viscosity: Falling or rolling sphere viscometry; for speed of sound: Frequency=3 MHz, Sing-around technique in a fixed-path interferometer; for mass density: Vibrating tube method

CCCC[n+]1ccn(C)c1.O=S(=O)([N-]S(=O)(=O)C(F)(F)F)C(F)(F)F + CCCCOC(C)=O
Settings | mass density, 298.15 K [kg/m3] | mass density, 303.15 K [kg/m3] | mass density, 308.15 K [kg/m3] | speed of sound, 298.15 K [m/s] | speed of sound, 303.15 K [m/s] | speed of sound, 308.15 K [m/s] | viscosity, 298.15 K [mPa·s] | viscosity, 303.15 K [mPa·s] | viscosity, 308.15 K [mPa·s]
x1 = 0.0252 | – | – | – | 1187.2 | 1167.5 | 1147.2 | – | – | –
x1 = 0.0521 | – | – | – | 1185.1 | 1165.2 | 1146.7 | – | – | –
x1 = 0.0754 | – | – | – | 1183.4 | 1164.2 | 1146.3 | – | – | –
x1 = 0.11 | 1002.7 | 997.7 | 992.65 | 1182 | 1163.8 | 1145.8 | 1.65 | 1.32 | 1.08
x1 = 0.2089 | 1091.17 | 1086.13 | 1081.08 | 1182.3 | 1165.8 | 1149.4 | 3.16 | 2.47 | 2
x1 = 0.2993 | 1157.05 | 1152.05 | 1147.06 | 1184.9 | 1169.6 | 1154.5 | 5.48 | 4.19 | 3.3
x1 = 0.393 | 1214.08 | 1209.12 | 1204.12 | 1189 | 1174.7 | 1160.6 | 8.7 | 6.7 | 5.35
x1 = 0.4847 | 1261.35 | 1256.55 | 1251.44 | 1194 | 1180.5 | 1167.2 | 13 | 10 | 7.85
x1 = 0.5739 | 1300.9 | 1296 | 1291.12 | 1199.2 | 1186.3 | 1173.6 | 18.01 | 13.81 | 10.8
x1 = 0.687 | 1344.53 | 1339.68 | 1335.03 | 1206.6 | 1194.3 | 1182.2 | 25.24 | 19.35 | 15.26
x1 = 0.7791 | 1375.41 | 1370.57 | 1365.95 | 1212.7 | 1201.8 | 1189.1 | 31.73 | 25.04 | 20
x1 = 0.9056 | 1412.56 | 1407.82 | 1403.1 | 1221.6 | 1211.6 | 1199.2 | 41.39 | 33.3 | 27.56
x1 = 1 | 1436.82 | 1431.98 | 1427.16 | 1227.8 | 1217.5 | 1205.2 | 50.04 | 40.72 | 33.73
